This note sets out measurements from ChEMBL document CHEMBL1142599, “Biocatalytic and antimetastatic studies of the marine cembranoids sarcophine and 2-epi-16-deoxysarcophine” (J Nat Prod, 2006).

For this test, the species on record is Mus musculus. The test can be described thus: Inhibition of mouse B16B15b cell migration after 16 hrs by wound-healing assay. The format is functional.
Turning to `CC1=C2CC/C(C)=C/C[C@H](O)[C@]3(C)O[C@H]3CC/C(C)=C/[C@@H]2OC1=O`, the Activity entry is “Dose-dependent effect”.

For `C/C1=C\[C@H]2OC[C@@]3(C)O[C@@]23CC/C(C)=C/CC[C@]2(C)O[C@H]2CC1`, the Activity entry was “Dose-dependent effect”.

Turning to `CC1=C2CC/C(C)=C/[C@@H](O)C[C@]3(C)O[C@H]3CC/C(C)=C/[C@H]2OC1`, the Activity result is “Dose-dependent effect”.

For the compound `CC1=C2[C@@H](O)C/C(C)=C/CC[C@]3(C)O[C@H]3CC/C(C)=C/[C@H]2OC1`, the Activity entry was “Dose-dependent effect”.

With `CC1=C2CC/C(C)=C/CC[C@]3(C)O[C@H]3CC/C(C)=C/[C@@H]2OC1=O`, the Activity result was “Dose-dependent effect”.

Turning to `CC1=C2CC/C(C)=C/CC[C@]3(C)O[C@H]3CC/C(C)=C/[C@H]2OC1`, the Activity entry is “Dose-dependent effect”.

Regarding `CC1=C2CC/C(C)=C/C[C@H](O)[C@]3(C)O[C@H]3CC/C(C)=C/[C@H]2OC1`, the Activity result is “Dose-dependent effect”.
